Where two headings read alike, the source gives them in different places.
How the values were obtained:
[1] = target: wild-type α1β2γ2 receptors; parameters: method as in PMID 19804380; conditions: cited from earlier work
[2] = system: α3T231Cβ2γ2 GABAA receptor; test: Covalent reaction at the functional level (two-electrode voltage clamp, Xenopus oocytes); assay type: cell-based; conditions: after 10 µM 3-NCS and removal of non-covalently reacted 3-NCS
Procedure: (§1) Capped cRNAs were synthesized (Ambion, Austin, TX, USA) from the linearized plasmids with a cytomegalovirus promotor (pCMVvectors) containing the different subunits, respectively. A poly-A tail of about 400 residues was added to each transcript using yeast poly- A polymerase (United States Biologicals, Cleveland, OH, USA). The concentration of the cRNA was quantified on a formaldehyde gel using Radiant Red stain (Bio-Rad) for visualization of the RNA. Known concentrations of RNA ladder (Invitrogen) were loaded as standard on the same gel. cRNAs were precipitated in ethanol/isoamylalcohol 19∶ 1, the dried pellet dissolved in water and stored at −80°C. cRNA mixtures were prepared from these stock solutions and stored at −80°C. Xenopus laevis oocytes were prepared, injected and defolliculated as described previously, [39]. They were injected with 50 nL of the cRNA solution containing wild type or mutated α1 or α2, α3, α5, α6 and wild type β2 and γ2 subunits at a concentration of 10 nM : 10 nM : 50 nM [40] and then incubated in modified Barth’s solution at +18°C for at least 24 h before the measurements.
(§2) Currents were measured using a modified two-electrode voltage clamp amplifier Oocyte clamp OC-725 (Warner Instruments) in combination with a XY-recorder (90% response time 0.1s) or digitized at 100 Hz using a PowerLab 2/20 (AD Instruments) using the computer programs Chart (ADInstruments GmbH, Spechbach, Germany). Tests with a model oocyte were performed to ensure linearity in the larger current range. The response was linear up to 15 µA.
(§3) Electrophysiological experiments were performed by using the two-electrode voltage clamp method at a holding potential of −80 mV. The perfusion medium contained 90 mM NaCl, 1 mM KCl, 1 mM MgCl2, 1 mM CaCl2, and 5 mM Na-HEPES (pH 7.4) and was applied by gravity flow 6 ml/min. The perfusion medium was applied through a glass capillary with an inner diameter of 1.35 mm, the mouth of which was placed about 0.4 mm from the surface of the oocyte. Allosteric modulation via the benzodiazepine site was measured at a GABA concentration eliciting 2–5% of the maximal GABA current amplitude. GABA was applied for 20 s alone or in combination with allosteric compound. 6 ml of the covalent reacting compound was applied to the oocyte and incubated for 3 min while stopping the flow of the perfusion medium. Modulation of GABA currents was expressed as (I(modulator + GABA)/IGABA –1) * 100%. The perfusion system was cleaned between drug applications by washing with DMSO to avoid contamination.

[3] = system: T1, α5T210Cβ2γ2 GABAA receptor; test: as above; assay type: cell-based; conditions: after 10 µM 3-NCS and removal of non-covalently reacted 3-NCS
T1 construct: expressed in transfected cells; host or cells: Xenopus laevis oocytes (cRNA injection)
Procedure: as §1, §2, §3

[4] = system: α5S209Cβ2γ2 GABAA receptor; test: as above; assay type: cell-based; conditions: after 10 µM 3-NCS and removal of non-covalently reacted 3-NCS
Procedure: as §1, §2, §3

[5] = system: wild type GABAA receptors; test: as above; assay type: cell-based; conditions: all wild type receptors
Procedure: as §1, §2, §3

[6] = system: α6N204Cβ2γ2 GABAA receptor; test: as above; assay type: cell-based; conditions: after 10 µM 3-NCS and removal of non-covalently reacted 3-NCS
Procedure: as §1, §2, §3

[7] = target: α1T206Cβ2γ2 GABAA receptor (Rattus norvegicus, UniProt P18508+P62813, T233C); parameters: method as in PMID 19804380; conditions: 10 µM 3-NCS; cited from earlier work
Sequence of α1T206Cβ2γ2 GABAA receptor (P62813 28-455 T233C): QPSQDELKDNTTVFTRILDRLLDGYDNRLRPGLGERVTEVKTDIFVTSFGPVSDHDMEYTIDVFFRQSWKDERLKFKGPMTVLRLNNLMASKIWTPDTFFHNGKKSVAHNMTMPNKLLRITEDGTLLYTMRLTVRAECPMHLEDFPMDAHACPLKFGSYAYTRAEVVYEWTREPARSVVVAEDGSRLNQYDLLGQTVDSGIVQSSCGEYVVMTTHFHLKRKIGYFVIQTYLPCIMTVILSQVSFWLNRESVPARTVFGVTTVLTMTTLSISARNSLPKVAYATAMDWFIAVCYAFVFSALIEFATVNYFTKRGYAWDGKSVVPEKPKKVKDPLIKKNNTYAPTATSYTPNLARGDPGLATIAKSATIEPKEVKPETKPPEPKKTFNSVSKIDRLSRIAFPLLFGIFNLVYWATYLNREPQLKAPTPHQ
Sequence of α1T206Cβ2γ2 GABAA receptor (P18508 39-466): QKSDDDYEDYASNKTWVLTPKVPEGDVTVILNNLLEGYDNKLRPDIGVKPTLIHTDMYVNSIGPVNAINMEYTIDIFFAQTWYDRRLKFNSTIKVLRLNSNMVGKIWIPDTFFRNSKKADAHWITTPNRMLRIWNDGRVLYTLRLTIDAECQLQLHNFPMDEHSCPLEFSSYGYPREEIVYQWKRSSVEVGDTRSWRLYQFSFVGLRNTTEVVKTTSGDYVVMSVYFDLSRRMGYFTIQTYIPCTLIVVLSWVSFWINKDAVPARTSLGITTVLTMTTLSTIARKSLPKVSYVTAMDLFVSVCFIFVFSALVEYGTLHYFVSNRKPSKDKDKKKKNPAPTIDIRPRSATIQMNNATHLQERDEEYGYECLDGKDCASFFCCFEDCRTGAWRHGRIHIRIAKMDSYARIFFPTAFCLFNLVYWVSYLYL
Sequence of α1T206Cβ2γ2 GABAA receptor (P63138 26-474 partner): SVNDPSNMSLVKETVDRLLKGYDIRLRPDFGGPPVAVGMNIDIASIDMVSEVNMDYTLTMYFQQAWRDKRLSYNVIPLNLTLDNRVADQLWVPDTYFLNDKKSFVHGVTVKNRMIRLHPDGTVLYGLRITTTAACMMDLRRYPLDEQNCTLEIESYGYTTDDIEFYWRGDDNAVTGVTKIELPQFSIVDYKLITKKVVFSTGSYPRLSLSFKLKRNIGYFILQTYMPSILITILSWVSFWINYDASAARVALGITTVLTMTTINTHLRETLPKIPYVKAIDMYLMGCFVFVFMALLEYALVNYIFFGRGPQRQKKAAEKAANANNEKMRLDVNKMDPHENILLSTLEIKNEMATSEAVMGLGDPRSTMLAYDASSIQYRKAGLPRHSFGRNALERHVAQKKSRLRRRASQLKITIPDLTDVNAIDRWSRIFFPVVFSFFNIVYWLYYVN

[8] = target: α5β1γ2 receptors (Rattus norvegicus, UniProt P18508+P19969); test: biochemical
Sequence of α5β1γ2 receptors (P19969 32-464 limits assumed): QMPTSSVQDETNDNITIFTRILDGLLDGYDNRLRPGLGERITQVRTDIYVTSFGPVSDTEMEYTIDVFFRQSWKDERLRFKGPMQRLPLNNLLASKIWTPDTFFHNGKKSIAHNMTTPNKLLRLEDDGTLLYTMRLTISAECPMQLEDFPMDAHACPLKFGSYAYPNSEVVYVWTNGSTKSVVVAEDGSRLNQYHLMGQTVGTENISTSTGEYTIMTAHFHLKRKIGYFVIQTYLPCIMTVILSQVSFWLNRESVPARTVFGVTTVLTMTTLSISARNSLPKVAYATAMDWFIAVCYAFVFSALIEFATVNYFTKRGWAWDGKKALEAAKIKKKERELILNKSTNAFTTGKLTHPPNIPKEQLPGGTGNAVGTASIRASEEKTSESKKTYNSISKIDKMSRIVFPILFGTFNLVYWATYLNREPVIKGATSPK
Sequence of α5β1γ2 receptors (P15431 26-474 partner): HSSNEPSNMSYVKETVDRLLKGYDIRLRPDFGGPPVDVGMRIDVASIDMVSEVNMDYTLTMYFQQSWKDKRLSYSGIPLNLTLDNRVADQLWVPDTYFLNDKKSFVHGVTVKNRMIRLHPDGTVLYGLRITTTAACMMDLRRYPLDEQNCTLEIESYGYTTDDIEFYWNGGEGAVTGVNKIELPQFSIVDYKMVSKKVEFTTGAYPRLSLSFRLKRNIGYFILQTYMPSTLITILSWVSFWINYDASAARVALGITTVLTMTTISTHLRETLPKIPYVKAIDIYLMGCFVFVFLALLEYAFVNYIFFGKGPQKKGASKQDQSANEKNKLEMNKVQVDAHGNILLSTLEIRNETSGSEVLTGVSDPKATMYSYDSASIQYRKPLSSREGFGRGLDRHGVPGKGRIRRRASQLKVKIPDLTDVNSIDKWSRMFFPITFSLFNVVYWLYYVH
Sequence of α5β1γ2 receptors (P18508 39-466): as the sequence (P18508 39-466) above
Procedure: Culturing of cells and membrane preparation were done as described before [30].
For this affinity estimate, membranes were re-suspended in phosphate buffer using a Teflon homogenizer. […] The final protein concentration was 0.1–1 mg of protein/ml. […] Membranes were collected by rapid vacuum filtration on GF/C filters. After three washing steps (3 sec each) with 5 ml of phosphate buffer, the filter-retained radioactivity was determined by liquid scintillation counting.

[9] = system: α1S204Cβ2γ2 GABAA receptor; parameters: method as in PMID 19804380; conditions: 10 µM 3-NCS; cited from earlier work
[10] = target: α1S204Cβ2γ2 GABAA receptor; test: Covalent reaction of 3-NCS at the binding level (residual radioligand binding, HEK293 membranes); parameters: key: n.r.: no covalent reaction; conditions: 3-NCS 30 min on ice, washed; residual [^3H]Ro15–1788 binding
Procedure: (§4) cDNAs coding for the αx (x = 1, 2, 3, 6), β2, and γ2S subunits DNA (20 µg : 20 µg : 20 µg) per 9 cm diameter dish were transfected in human embryonic kidney (HEK) 293 cells (American Type of Culture Collection, MD, USA, CRL 1573) using the calcium phosphate precipitation technique. For α5 containing receptors β2 was replaced by β1. […] Culturing of cells and membrane preparation were done as described before.
(§5) As detailed in previous work, [30], [33] this procedure included three steps: incubation of membranes expressing recombinant wild type or mutant receptors with the reactive agent followed by extensive washing of the membranes in order to remove non-reacted compound and a radioactive ligand binding assay to determine residual binding. No covalent reaction would result in 100% residual binding, and 100% covalent reaction would result in 0% residual binding.
(§6) Briefly, the membranes were re-suspended in phosphate buffer (100 mM KCl, 10 mM KH2PO4, 0.1 mM EDTA, pH 7.4) using a Glass/Teflon homogenizer. 0.1–1.0 mg/mL of protein were incubated in a total volume of 360 µL with either 10 µM (determination of degree of covalent reaction) or several concentrations of 3-NCS for 30 min on ice. Membranes were collected with rapid filtration on a round 7 mm diameter glass fiber filter (GF/C; Whatman) that was placed on a round 24 mm diameter glass fiber filter (GF/C; Whatman), both pre-washed with phosphate buffer. […] Radioactivity was determined by liquid scintillation counting. Non-specific binding was determined in the presence of 100 µM Ro 15–1788. In control experiments, washing efficiency was estimated by placing radioactivity on the small filter. More than 99.95% of the radioactivity was removed (not shown).
(§7) Concentration response curves for 3-NCS were fitted with the equation C(c) = Cmax/(1+(EC50/c)), where c is the concentration of 3-NCS, EC50 the concentration of 3-NCS where half maximal covalent reaction was observed, Cmax is the maximal extent of the covalent reaction and C the measured extent of the covalent reaction.

[11] = target: α6N204Cβ2γ2 GABAA receptor; test: as above; parameters: key: n.r.: no covalent reaction; conditions: 3-NCS 30 min on ice, washed; [^3H]15–4513 as radioactive ligand
Procedure: as §4, §5, §6, §7

[12] = target: α6S203Cβ2γ2 GABAA receptor; test: as above; parameters: key: n.r.: no covalent reaction; conditions: 3-NCS 30 min on ice, washed; [^3H]15–4513 as radioactive ligand
Procedure: as §4, §5, §6, §7

CN1C(=O)C(N=C=S)N=C(c2ccccc2)c2cc([N+](=O)[O-])ccc21 (stereo not shown) [3-NCS]
Ki ([1]; radioligand [^3H]Ro15–1788, read-out: Ki, displacement of [^3H]Ro15–1788): 340 ± 16 nM
Ki ([1]; radioligand [^3H]flunitrazepam, read-out: Ki, displacement of [^3H]flunitrazepam): 240 ± 55 nM
% allosteric modulation, 3-NCS [2]: 28±16%
% allosteric modulation, 3-NCS [3]: 10±5%
% allosteric modulation, 3-NCS [4]: 46±17%
Irreversible change of GABA current amplitude after 3-NCS (in words) [5]: failed to show any changes in the current amplitude
% allosteric modulation, 3-NCS [6]: −4±6%
Covalent reaction with 3-NCS (in words) [7]: resulted in covalent reaction
Ki [8]: 9840 ± 1480 nM
Covalent reaction with 3-NCS (in words) [9]: did not covalently react
EC50 of the covalent reaction [10]: n.r.
EC50 of the covalent reaction [11]: n.r. ^a
EC50 of the covalent reaction [12]: n.r. ^a

From paper PMC3407089, “Influence of GABAA Receptor α Subunit Isoforms on the Benzodiazepine Binding Site” (PLoS ONE, 2012)
